{"source": "patent US6172205A", "about": "“Synthetic process toward total synthesis of eleutherobin and its analogues and uses thereof” (The Trustees of Columbia in the City of New York, priority 1998, dated 2001)", "key": {"[1]": {"system": "Human non-small cell lung carcinoma cells, A549", "assay": "Cytotoxicity by counting cells after 72 h, Taxol-sensitive cells", "type": "cell-based", "protocol": "Taxol-resistant and sensitive cell lines were seeded into 12-well plates at a density of 5×10^4 cells per well and allowed a period of 12 h for attachment prior to treatment. […] Cells were then trypsinized and counted (Coulter counter model ZF0031, Coulter Corp., Miami, Fla.)."}, "[2]": {"system": "A549-T12 (Taxol-resistant A549)", "assay": "Cytotoxicity by counting cells after 72 h, Taxol-resistant cells", "type": "cell-based, human", "protocol": "(§1) Human non-small cell lung carcinoma cells, A549, were maintained in RPMI 1640 containing 10% fetal bovine serum and 1% penicillin-streptomycin (Gibco Laboratories, Grand Island N.Y.) at 37° C. in 7% CO2. The Taxol-resistant cell line A549-T12 was selected for resistance to Taxol and maintained in a final concentration of 12 nM drug (21). Human ovarian carcinoma cells SKOV3 and the MDR variant SKVBL (obtained from Dr. V. Ling) were maintained in α-mem plus ribonucleotides, deoxynucleotides, 15% fetal bovine serum and 1% penicillin-streptomycin (Gibco Laboratories) at 37° C. in 5% CO2. SKVBL cells were maintained in […] vinblastine (Sigma Chemical Co.).\n(§2) Taxol-resistant and sensitive cell lines were seeded into 12-well plates at a density of 5×10^4 cells per well and allowed a period of 12 h for attachment prior to treatment. Cells were exposed to 10-fold serial dilutions of each compound (10^-10 to 10^-6 M) for 72 h. Cells were then trypsinized and counted (Coulter counter model ZF0031, Coulter Corp., Miami, Fla.). The IC50 was determined by plotting cell number against log of the drug concentration and this was used to determine the concentration of compound resulting in 50% growth inhibition compared to untreated cells. Each cell line was assayed in a minimum of 3 independent experiments with each compound and the results expressed as the mean IC50.\n(§3) The cytotoxic efficacy of eleutherobin and its derivatives (FIG. 6) was evaluated in two drug sensitive human cancer cell lines and their Taxol-resistant counterparts. The results are summarized in Table I in order of decreasing potency. […] The Taxol-resistant cell line SKVBL overexpresses high levels of P-glycoprotein (22). […] The only difference between the two agents is the enantiomeric relationship in the carbohydrate (2'-acetylarabinose) sector (FIG. 6). […] This cell line expressed high levels of MDR1 resulting in Taxol-resistance equal or greater than 1666 -fold compared to the Taxol-sensitive SKOV3 cell line.\n(§4) ^a Cytotoxicity determined by counting cells after 72 h drug exposure."}, "[3]": {"system": "Human ovarian carcinoma cells SKOV3", "assay": "Cytotoxicity by counting cells after 72 h, Taxol-sensitive cells", "type": "cell-based", "conditions": "SK-OV-3, 72 h", "protocol": "as §1, §2, §4"}, "[4]": {"system": "SKVBL (MDR variant of SKOV3)", "assay": "Cytotoxicity by counting cells after 72 h, MDR variant cells", "type": "cell-based, human", "protocol": "as §1, §2, §3, §4"}, "[5]": {"system": "cellular microtubules, NIH 3T3 cells", "assay": "Microtubule bundle formation by immunofluorescence", "type": "cell-based", "conditions": "2 μM, 5.5 h", "protocol": "FIG. 9 immunofluorescence images NIH3T3 cells labeled with β-tubulin antibody following exposure to different drugs. A)DMSO; B)2 μM Taxol; C)2 μM eleutherobin; D)2 μM neo-eleutherobin; E)2 μM SKBII.294; F)2 μM SKBIII.13.\nIllustrates the effects of eleutherobin and its derivatives on the morphology of cellular microtubules following exposure of cells to 2 μM of each compound for 5.5 h at 37° C. […] The number of micotic asters correlated with the extent of microtubule bundling in interphase cells.\nNIH 3T3 cells were grown to subconfluency on glass converslips in 35 mm plastic petri dishes. Cells were exposed to 2 μM of Taxol and each of the experimental compounds for 5.5 h at 37° C., rinsed twice in PBS and extracted with 0.5% Triton-X-100 in microtubule stabilizing buffer (PEM) (100 mM PIPES, 2 mM EGTA and 2 mM MgCl2, pH 6.8) for 4 min. Following a wash in PEM, the cells were fixed for 40 min at room temperature in 3% formaldehyde in PEM followed by incubation in 0.1 M glycine in PBS for 10 min and washing (four times) in PEM containing 5 μM EGTA. Following blocking in 20% normal goat serum (NGS) for 30 min at room temperature, cells were incubated for 1 h at 37° C. with a 1:100 dilution of β-tubulin mAb diluted in 10% NGS, washed twice in 1% BSA, once in PBS and three times in 1% BSA. Cells were then incubated in a 1:200 dilution of the secondary fluorophore antibody, IndocarbocyanineCY3 (Jackson Immunoresearch Laboratories Inc., Pa.) in 20% NGS for 20 min at room temperature. Finally cells were washed three times in 1% BSA and the dried slides mounted in 30% glycerol in PBS containing […]-phenylene diamine (1 mg/ml). Fixed slides were examined using a Zeiss Axioskop microscope."}, "[6]": {"system": "MDR1 expressing cell line derived from human colon carcinoma HCT 116 cells", "conditions": "cited from earlier work"}, "microtubules": {"system": "microtubules", "conditions": "cited from earlier work"}}, "note": "“Also recorded” adds a separate entry of the source."}
{"compound": "CO[C@]12C=C[C@](C)(O1)[C@@H](OC(=O)/C=C/c1cn(C)cn1)C[C@H]1C(C)=CC[C@H](C(C)C)[C@H]1/C=C\\2CO[C@@H]1OC[C@@H](O)[C@@H](O)[C@@H]1OC(C)=O", "note": "[Eleutherobin]", "values": [{"measurement": "IC50", "setting": "[1]; Homo sapiens, A549, 72 h", "result": 6, "unit": "nM"}, {"measurement": "fold less potent than Taxol", "setting": "[1]; both sensitive cell lines (A549, SKOV3)", "result": 3, "unit": "fold"}, {"measurement": "cytotoxicity (in words)", "setting": "[1]; sensitive cell lines (A549, SKOV3)", "result": "IC50 value comparable at Taxol; also recorded: within the nM range"}, {"measurement": "fold resistance relative to the parental cell line", "setting": "[2]; A549-T12 vs A549, 4320 min", "result": 1.9, "unit": "fold"}, {"measurement": "IC50", "setting": "[2]; Homo sapiens, Lung Carcinoma A549, Resistant (A549-T12), 72 h, mean of at least three independent experiments", "result": 12.2, "unit": "nM"}, {"measurement": "cross-resistance in A549-T12 (in words)", "setting": "[2]; Taxol-resistant, not expressing P-glycoprotein", "result": "neither eleutherobin nor neo-eleutherobin displayed cross-resistance; also recorded: neither of these compounds showed cross-resistance"}, {"measurement": "IC50", "setting": "[3]", "result": 9.5, "unit": "nM"}, {"measurement": "IC50", "setting": "[4]; Homo sapiens, SK-OV-3, Ovarian Carcinoma SKOV3, Resistant (SKVBL), 72 h, mean of at least three independent experiments", "result": "> 1000", "unit": "nM"}, {"measurement": "cross-resistance in SKVBL (in words)", "setting": "[4]; MDR1 expressing cells, high P-glycoprotein", "result": "exhibited cross-resistance in an MDR1 expressing cell line; also recorded: demonstrated cross-resistance"}, {"measurement": "fold resistance relative to the parental cell line", "setting": "[4]; SKVBL vs SKOV3", "result": "≥ 1052", "unit": "fold"}, {"measurement": "microtubule bundle formation (in words)", "setting": "[5]; 37 °C", "result": "extensive microtubule bundling"}, {"measurement": "multiple asters in mitotic cells", "setting": "[5]; data not shown", "result": "also seen in eleutherobin and neo-eleutherobin-treated cells"}, {"measurement": "cross-resistance in MDR1 expressing HCT 116-derived cells (in words)", "setting": "[6]", "result": "demonstrated cross-resistance in an MDR1 expressing cell line"}, {"measurement": "effect on microtubules (in words)", "setting": "microtubules", "result": "potentiates the assembly of stable microtubules resistant to depolymerization; also recorded: promotes the polymerization of stable microtubules"}]}
